Active and inactive are the calls of the source. The calls are words filed in the database; no cut-off is given here.
Species on record: Oryctolagus cuniculus
Experiment: Vasorelaxant activity in rabbit aorta assessed as inhibition of KCl-induced contraction
Type: functional, tissue-based

| Compound | Activity |
| --- | --- |
| C=C1CC[C@H]2C(=C)C(=O)O[C@@H]2C2C(=C)CCC12 (some centres not stated) | Active |
| C=C1C(=O)O[C@@H]2/C=C(\C)CC/C=C(\C)CC[C@@H]12 | Active |

— ChEMBL document CHEMBL1149021, “Vasoactive substances from Saussurea lappa” (J Nat Prod, 1986)
